Data as given in the NIST ThermoML archive (doi:10.1021/je900091b).

Assay: xn = mol fraction of the nth substance listed
Conditions: Liquid

C=C(C)C(=O)OC [methyl methacrylate] + CCCCn1cc[n+](C)c1.F[P-](F)(F)(F)(F)F
Conditions | mass density [kg/m3] | viscosity [mPa·s]
283.15 K, x1 = 0.0986 | 1360.73 | 434.9
283.15 K, x1 = 0.2094 | 1335.27 | 218.03
283.15 K, x1 = 0.3073 | 1310.42 | 118.57
283.15 K, x1 = 0.4053 | 1282.19 | 64.04
283.15 K, x1 = 0.4977 | 1250.45 | 34.64
283.15 K, x1 = 0.5993 | 1211.21 | 17.78
283.15 K, x1 = 0.7009 | 1164.35 | 8.859
283.15 K, x1 = 0.8003 | 1109.1 | 3.909
283.15 K, x1 = 0.9007 | 1042.12 | 1.719
283.15 K, x1 = 1 | 954.802 | 0.6808
288.15 K, x1 = 0.0986 | 1356.38 | 308.34
288.15 K, x1 = 0.2094 | 1330.98 | 161.21
288.15 K, x1 = 0.3073 | 1306.05 | 91.29
288.15 K, x1 = 0.4053 | 1277.72 | 50.28
288.15 K, x1 = 0.4977 | 1245.87 | 28.16
288.15 K, x1 = 0.5993 | 1206.49 | 14.99
288.15 K, x1 = 0.7009 | 1159.46 | 7.717
288.15 K, x1 = 0.8003 | 1103.97 | 3.485
288.15 K, x1 = 0.9007 | 1036.71 | 1.575
288.15 K, x1 = 1 | 949.097 | 0.6337
293.15 K, x1 = 0.0986 | 1352.04 | 224.88
293.15 K, x1 = 0.2094 | 1326.72 | 122.32
293.15 K, x1 = 0.3073 | 1301.68 | 71.8
293.15 K, x1 = 0.4053 | 1273.26 | 40.3
293.15 K, x1 = 0.4977 | 1241.3 | 23.27
293.15 K, x1 = 0.5993 | 1201.58 | 12.81
293.15 K, x1 = 0.7009 | 1154.07 | 6.781
293.15 K, x1 = 0.8003 | 1098.45 | 3.136
293.15 K, x1 = 0.9007 | 1031.1 | 1.45
293.15 K, x1 = 1 | 943.365 | 0.5899
298.15 K, x1 = 0.0986 | 1347.84 | 168.14
298.15 K, x1 = 0.2094 | 1322.45 | 94.88
298.15 K, x1 = 0.3073 | 1297.32 | 55.22
298.15 K, x1 = 0.4053 | 1268.81 | 32.87
298.15 K, x1 = 0.4977 | 1236.75 | 19.54
298.15 K, x1 = 0.5993 | 1197.09 | 11.07
298.15 K, x1 = 0.7009 | 1149.69 | 6.014
298.15 K, x1 = 0.8003 | 1093.72 | 2.836
298.15 K, x1 = 0.9007 | 1025.87 | 1.342
298.15 K, x1 = 1 | 937.615 | 0.554
303.15 K, x1 = 0.0986 | 1343.67 | 128.46
303.15 K, x1 = 0.2094 | 1318.17 | 75.44
303.15 K, x1 = 0.3073 | 1292.97 | 44.49
303.15 K, x1 = 0.4053 | 1264.37 | 27.22
303.15 K, x1 = 0.4977 | 1232.2 | 16.62
303.15 K, x1 = 0.5993 | 1192.4 | 9.662
303.15 K, x1 = 0.7009 | 1144.81 | 5.374
303.15 K, x1 = 0.8003 | 1088.59 | 2.583
303.15 K, x1 = 0.9007 | 1020.43 | 1.247
303.15 K, x1 = 1 | 931.837 | 0.5248
308.15 K, x1 = 0.0986 | 1339.49 | 100.54
308.15 K, x1 = 0.2094 | 1313.91 | 58.33
308.15 K, x1 = 0.3073 | 1288.62 | 36.45
308.15 K, x1 = 0.4053 | 1259.94 | 22.86
308.15 K, x1 = 0.4977 | 1227.67 | 14.29
308.15 K, x1 = 0.5993 | 1187.73 | 8.505
308.15 K, x1 = 0.7009 | 1139.93 | 4.838
308.15 K, x1 = 0.8003 | 1083.46 | 2.369
308.15 K, x1 = 0.9007 | 1014.97 | 1.165
308.15 K, x1 = 1 | 926.032 | 0.4956
313.15 K, x1 = 0.0986 | 1335.32 | 80.4
313.15 K, x1 = 0.2094 | 1309.66 | 47.27
313.15 K, x1 = 0.3073 | 1284.28 | 30.27
313.15 K, x1 = 0.4053 | 1255.53 | 19.43
313.15 K, x1 = 0.4977 | 1223.15 | 12.43
313.15 K, x1 = 0.5993 | 1183.05 | 7.55
313.15 K, x1 = 0.7009 | 1135.06 | 4.379
313.15 K, x1 = 0.8003 | 1078.32 | 2.175
313.15 K, x1 = 0.9007 | 1009.49 | 1.092
313.15 K, x1 = 1 | 920.185 | 0.4719
318.15 K, x1 = 0.0986 | 1331.15 | 62.99
318.15 K, x1 = 0.2094 | 1305.41 | 38.91
318.15 K, x1 = 0.3073 | 1279.94 | 25.49
318.15 K, x1 = 0.4053 | 1251.13 | 16.71
318.15 K, x1 = 0.4977 | 1218.64 | 10.9
318.15 K, x1 = 0.5993 | 1178.39 | 6.745
318.15 K, x1 = 0.7009 | 1130.19 | 3.99
318.15 K, x1 = 0.8003 | 1073.17 | 2.007
318.15 K, x1 = 0.9007 | 1004 | 1.026
318.15 K, x1 = 1 | 914.317 | 0.4497
323.15 K, x1 = 0.0986 | 1327 | 51.32
323.15 K, x1 = 0.2094 | 1301.17 | 32.45
323.15 K, x1 = 0.3073 | 1275.58 | 21.7
323.15 K, x1 = 0.4053 | 1246.74 | 14.51
323.15 K, x1 = 0.4977 | 1214.13 | 9.64
323.15 K, x1 = 0.5993 | 1173.73 | 6.066
323.15 K, x1 = 0.7009 | 1125.33 | 3.653
323.15 K, x1 = 0.8003 | 1068.01 | 1.868
323.15 K, x1 = 0.9007 | 998.489 | 0.9687
323.15 K, x1 = 1 | 908.405 | 0.4294
328.15 K, x1 = 0.0986 | 1322.85 | 42.36
328.15 K, x1 = 0.2094 | 1296.92 | 27.39
328.15 K, x1 = 0.3073 | 1271.14 | 18.69
328.15 K, x1 = 0.4053 | 1242.36 | 12.71
328.15 K, x1 = 0.4977 | 1209.65 | 8.585
328.15 K, x1 = 0.5993 | 1169.08 | 5.497
328.15 K, x1 = 0.7009 | 1120.46 | 3.362
328.15 K, x1 = 0.8003 | 1062.85 | 1.743
328.15 K, x1 = 0.9007 | 992.98 | 0.9201
328.15 K, x1 = 1 | 902.468 | 0.41
333.15 K, x1 = 0.0986 | 1318.71 | 35.43
333.15 K, x1 = 0.2094 | 1292.66 | 23.38
333.15 K, x1 = 0.3073 | 1267.36 | 16.24
333.15 K, x1 = 0.4053 | 1237.99 | 11.22
333.15 K, x1 = 0.4977 | 1205.17 | 7.691
333.15 K, x1 = 0.5993 | 1164.44 | 4.991
333.15 K, x1 = 0.7009 | 1115.59 | 3.111
333.15 K, x1 = 0.8003 | 1057.67 | 1.629
333.15 K, x1 = 0.9007 | 987.485 | 0.915
333.15 K, x1 = 1 | 896.479 | 0.3938
343.15 K, x1 = 0.0986 | 1310.46 | 25.61
343.15 K, x1 = 0.2094 | 1284.51 | 17.56
343.15 K, x1 = 0.3073 | 1259.32 | 12.57
343.15 K, x1 = 0.4053 | 1229.29 | 8.922
343.15 K, x1 = 0.4977 | 1196.23 | 6.278
343.15 K, x1 = 0.5993 | 1155.17 | 4.187
343.15 K, x1 = 0.7009 | 1105.84 | 2.708
343.15 K, x1 = 0.8003 | 1047.29 | 1.431
343.15 K, x1 = 0.9007 | 976.413 | 0.8545
343.15 K, x1 = 1 | 884.418 | 0.3636
353.15 K, x1 = 0.0986 | 1302.23 | 19.25
353.15 K, x1 = 0.2094 | 1275.98 | 13.65
353.15 K, x1 = 0.3073 | 1250.71 | 10.01
353.15 K, x1 = 0.4053 | 1220.62 | 7.259
353.15 K, x1 = 0.4977 | 1187.32 | 5.224
353.15 K, x1 = 0.5993 | 1145.91 | 3.579
353.15 K, x1 = 0.7009 | 1096.08 | 2.415
353.15 K, x1 = 0.8003 | 1036.87 | 1.272
353.15 K, x1 = 0.9007 | 965.13 | 0.781
353.15 K, x1 = 1 | 872.129 | 0.3398
